# Source: patent US11173177B2, “Compounds for treatment of lipoprotein metabolism disorders” (Aarhus Universitet, priority 2016, dated 2021)
# “Also recorded” adds a separate entry of the source.
# B1: Evolocumab: commercially available PCSK9 inhibitory monoclonal antibody (Amgen) (antibody, chains of the INN, looked up, V domains shown)
# VH: EVQLVQSGAEVKKPGASVKVSCKASGYTLTSYGISWVRQAPGQGLEWMGWVSFYNGNTNYAQKLQGRGTMTTDPSTSTAYMELRSLRSDDTAVYYCARGYGMDVWGQGTTVTVSS
# VL: ESALTQPASVSGSPGQSITISCTGTSSDVGGYNSVSWYQQHPGKAPKLMIYEVSNRPSGVSNRFSGSKSGNTASLTISGLQAEDEADYYCNSYTSTSMVFGGGTKLTVL
# B2: heparinase I: enzyme that cleaves heparan sulfate GAG chains (Sigma Aldrich/H2519) (protein, UniProt Q05819 22-384, looked up)
# Heparin lyase I: QQKKSGNIPYRVNVQADSAKQKAIIDNKWVAVGINKPYALQYDDKLRFNGKPSYRFELKAEDNSLEGYAAGETKGRTELSYSYATTNDFKKFPPSVYQNAQKLKTVYHYGKGICEQGSSRSYTFSVYIPSSFPDNATTIFAQWHGAPSRTLVATPEGEIKTLSIEEFLALYDRMIFKKNIAHDKVEKKDKDGKITYVAGKPNGWKVEQGGYPTLAFGFSKGYFYIKANSDRQWLTDKADRNNANPENSEVMKPYSSEYKTSTIAYKMPFAQFPKDCWITFDVAIDWTKYGKEANTILKPGKLDVMMTYTKNKKPQKAHIVNQQEILIGRNDDDGYYFKFGIYRVGNSTVPVTYNLSGYSETAR
# Experiments:
# [1] = test system: PCSK9; experiment: BIACORE analysis of PCSK9 binding to heparin-albumin or albumin sensor chips; design: species or system human
# Experimental: BIACORE analysis using sensor chips coupled with either albumin (Sigma A4503) or heparin-albumin (Sigma H0403) were used to evaluate the interaction between PCSK9 and heparin. […] An interference assay using BIACORE analysis was implemented to assess the binding between compound (X) and PCSK9. Solutions of 100 nM PCSK9 was incubated with increasing concentrations of compound (X) (0 nM, 10 nM, 100 nM, 1 μM and 10 μM), the solutions were then infused over the sensor chip coupled with heparin-albumin.
# [2] = test system: PCSK9; experiment: Heparin-sepharose binding assay (free PCSK9 by ELISA); design: species or system human; conditions: 500-250 μg/ml, PCSK9 1 μg/ml, over night 4° C.
# Experimental: Compound (X) inhibition of PCSK9 binding to Heparin/Heparan sulfate was tested in a Heparin-sepharose binding assay. Heparin-sepharose beads (2 μl) were incubated with PCSK9 (1 μg/ml) with increasing concentrations of compound (X) (0-500 μg/ml) in a total volume of 150 μl 10 mM NaH2PO4. After over night rotation at 4° C., beads were pelleted and the concentration of non-precipitated PCSK9 (free PCSK9) in supernatant was evaluated by ELISA. The concentration of free PCSK9 in each sample was normalised to the PCSK9 level in a sample without Heparin-sepharose beads (input control). As positive control was included a sample with soluble heparin (5 mg/ml) (FIG. 16 A).
# Sucrose octasulfate (FIG. 21A) inhibition of PCSK9 binding to Heparin/Heparan sulfate was tested in a Heparin-sepharose binding assay. Heparin-sepharose beads (2 μl) were incubated with PCSK9 (1 μg/ml) and increasing concentrations of sucrose octasulfate (0-500 μg/ml) in a total volume of 150 μl 10 mM NaH2PO4. After over night rotation at 4° C., beads were pelleted and the concentration of non-precipitated PCSK9 (free PCSK9) in supernatant was evaluated by ELISA). Percent free PCSK9 was calculated with respect to the PCSK9 concentration in a sample without Heparin-sepharose beads (input control) (FIG. 21B).
# [3] = test system: LDLR in HepG2 cells; experiment: LDLR levels in HepG2 cells by Western blotting and densitometry; format: cell-based, human; conditions: for cellular LDLR, plateau compared to control: dose-dependent increase
# Experimental: In the heparin mimetic class of modified polysaccharides compounds dextran sulfate (FIG. 9 A-B) and pentosan (FIG. 9 D-E) were tested in a HepG2 based in vitro cell assay. After overnight incubation LDLR levels were evaluated by Western blotting showing a concentration dependent increase of LDLR upon treatment with dextran sulfate (0-200 μg/ml) with up to 3-fold up regulation of LDLR.
# Control cells were incubated without additives (negative control) or 500 μg/ml heparin (positive control). LDLR levels were calculated with respect to the level found in lysate of HepG2 cells incubated without additives.
# HepG2 cells were incubated with 0-200 μg/ml of heterogeneously sulfated hexamer or 18-mer oligosaccharides containing on average 1,3 sulfates per disaccharide. After over night incubation cells were harvested and the cellular level of LDLR was analyzed by Western blotting (FIG. 17 A) and quantified by densitometry (FIG. 17 B).
# [4] = molecular target: PCSK9; experiment: Microscale Thermophoresis (MST) binding to PCSK9; design: species or system human; conditions: 100 nM labelled PCSK9, PBS+0.05% Tween-20; for Kd: read-out: KD (affinity for PCSK9, MST)
# Experimental: Equilibrium binding affinities between PCSK9 and ligands (suramin, dextran sulfate 5000, dextran 5000, pentosan sulfate and S-dC-36) were assessed using Microscale Thermophoresis (MST) (Jerabek-Willemsen et al., 2011). PCSK9 was labeled using the MO-L003 Monolith Blue-NHS labeling kit (NanoTemper Technologies) and a labeling efficiency of 1:1 molar ratio of protein to dye was achieved. PCSK9 was applied at a final concentration of 100 nM. The unlabeled binding partner was titrated in 1:1 dilutions (in PBS+0.05% Tween-20) where the highest concentrations were 15.4 mM for suramin, 2.3 mM for dextran sulfate 5000, 2.3 mM for dextran 5000, 16.3 mM for pentosan sulfate and 250 μM for S-dC-36. MST measurements were performed in standard-treated capillaries (NanoTemper Technologies) on a Monolith NT.115 instrument (NanoTemper Technologies) using 20% LED and 80% MST power. Laser on and off times were 5 s and 35 s, respectively. Negative controls were performed using 100 nM of labelled PCSK9 in MST buffer in all 16 capillaries under the same conditions as mentioned above. Binding curves were obtained from the temperature-jump phase at 80% MST power for suramin, dextran sulfate 5000 and S-dC-36; and from the thermophoresis+temperature-jump phase at 80% MST power for pentosan sulfate. For each binding partner, the sigmoidal dose-response curves were fitted with GraphPad Prism 6 to yield an average KD value.
# [5] = test system: LDLR in HepG2 cells; experiment: LDLR levels in HepG2 cells by Western blotting and densitometry; format: cell-based, human
# [6] = oral dose; cited from earlier work
# [7] = test system: liver LDLR; experiment: Liver LDLR levels in mice after intravenous PCSK9 injection (Western blot); format: in vivo
# Experimental: To test the effect of enzymatic removal of heparan sulfate GAGs on PCSK9 activity in vivo 10-12 week-old male BALB6/cJRj mice were infused with heparinase I (30 U) administered through a tail vein catheter 5 min prior injection of PCSK9 (10 μg). In control mice the heparinase injection and/or the PCSK9 injection were replaced with an injection of 0.9% saline. During heparinase infusion, mice were lightly anaesthetized with isoflurane continuously administered through a mask.
# Mice (BALB6/cJRj) were subjected to a single intravenous administration (tail vein) of 10 μg human recombinant PCSK9 alone or in combination with heparin (50 U). One hour post injection mice were sacrificed and liver tissues were collected.
# Mice (BALB6/cJRj) were subjected to a single intravenous (tail vein) administration of 3.2 μg compound (X) 60 minutes prior injection with PCSK9 (10 μg). PCSK9 induced degradation of liver LDLR was assessed 60 min post PCSK9 injection by Western blotting and quantified by densitometry (FIG. 16 C). Control mice were injected with NaCl or control inhibitor Evolocumab (200 μg), commercially available PCSK9 inhibitory monoclonal antibody (Amgen). LDLR levels were calculated with respect to LDLR level in mice injected with NaCl alone.
# [8] = test system: HepG2 cells; experiment: Uptake of Bodipy-labeled LDL particles in HepG2 cells; format: cell-based, human; conditions: suramin 200 μg/ml overnight, then 4 hours 10 ng/ml Bodipy-LDL
# Experimental: FIG. 12: Bar graphs showing the relative fluorescence signal in HepG2 cells after overnight incubation with suramin (200 μg/ml) following 4 hours incubation with 10 ng/ml LDL particles labeled with fluorescence dye Bodipy. Inhibition of PCSK9 with suramin increases the uptake of LDL two-fold.
# [9] = test system: cell surface PCSK9; experiment: Surface PCSK9 immunostaining of non-permeabilized HepG2 cells stably expressing PCSK9; format: cell-based, human; conditions: heparinase I 1 h at 37° C.
# Experimental: We speculated that HSPG might be involved in the capture of PCSK9. Thus, we treated human hepatocyte-derived HepG2 cells stably expressing PCSK9 with heparinase I. The enzyme heparinase I cleaves heparan sulfate GAG chains at the 1,4 O-linkage between uronic acid and N-acetyl-D-glucosamine, thereby removing cell surface heparan sulfate chains.
# HepG2 cells stably transfected with PCSK9 were seeded at 50.000 cells per coverslip and incubated overnight before addition of heparinase I (Sigma Aldrich/H2519) in PBS (0,0002 UN/ml) or PBS alone. Cells were incubated for 1 h. at 37° C., before fixation in 4% paraformaldehyd and immunostaining of non-permeabilized cells with primary and secondary antibodies. Nuclei were visualized with Hoechst dye (Sigma Aldrich). Images were acquired on a Zeiss LSM780.
molecule,measurement,setting,value
albumin: albumin (Sigma A4503) control sensor chip,PCSK9 binding to control sensor chip,[1]; sensor chip coupled with albumin,no binding was observed
O=S(=O)(O)OC[C@H]1O[C@@](COS(=O)(=O)O)(O[C@H]2O[C@H](COS(=O)(=O)O)[C@@H](OS(=O)(=O)O)[C@H](OS(=O)(=O)O)[C@H]2OS(=O)(=O)O)[C@@H](OS(=O)(=O)O)[C@@H]1OS(=O)(=O)O [Sucrose octasulfate],inhibition of PCSK9 precipitation with Heparin-sepharose,[2],inhibited PCSK9 precipitation with Heparin-sepharose as well as 5 mg/ml soluble heparin
dextran sulfate,up regulation of LDLR,"[3]; 0-200 μg/ml, overnight",up to 3 fold
same,cellular level of LDLR,"[3]; 200 μg/ml, 24 hour",potently increase the cellular level of LDLR
same,"cellular LDLR, plateau compared to control",[3],around 400%
same,Kd,[4],180 µM
phosphorothioate oligodeoxycytidine [S-dC-36],cellular LDLR levels / PCSK9 inhibitory effect,"[5]; 0-5.0 μM, 24 hour",potent inhibitory effects; also recorded: concentration dependent increase in cellular receptor levels
pentosan sulfate,"absorption from the digestive tract, median time after ingestion",[6],2 h
same,increase in LDLR,"[3]; 50-200 μg/ml, 24 hour / overnight",4 fold
same,"cellular LDLR, plateau compared to control",[3],around 400%
same,Kd,[4],381 µM
dextran,"KD (affinity for PCSK9, MST)",[4],no affinity for PCSK9
Cc1ccc(C(=O)Nc2ccc(S(=O)(=O)O)c3cc(S(=O)(=O)O)cc(S(=O)(=O)O)c23)cc1NC(=O)c1cccc(NC(=O)Nc2cccc(C(=O)Nc3cc(C(=O)Nc4ccc(S(=O)(=O)O)c5cc(S(=O)(=O)O)cc(S(=O)(=O)O)c45)ccc3C)c2)c1 [suramin],level of liver LDLR compared to mice injected with PCSK9 alone,"[7]; co-injected with PCSK9 (10 μg), heparin 50 U or suramin 300 μg, 1 hour",significantly higher level of LDLR
same,uptake of fluorescently labelled LDL particles,[8],increased cellular uptake of fluorescently labelled LDL particles; also recorded: two-fold
same,LDLR level compared with cells incubated with statins,"[5]; 100 μM, 24 and 48 hours, vs mevastatin and simvastatin",higher level of LDLR
same,increase in LDLR,"[5]; suramin 0-200 μg/ml, 24 hour",up to fifteen-fold increase in LDLR
same,Kd,[4],190 µM
heparin-albumin: heparin-albumin (Sigma H0403) coupled to sensor chip,Kd,"[1]; Example 20 text, read-out: affinity constant of PCSK9 binding",0.7 nM
B1,decrease of liver LDLR level after PCSK9 injection,"[7]; inhibitor i.v. 60 min prior PCSK9 (10 μg), compound (X) 0.13 mg/kg, Evolocumab 8 mg/kg, PCSK9 without inhibitor: 50% decrease",no decrease was observed
B2,PCSK9 induced degradation of liver LDLR,"[7]; heparinase I (30 U) infused 5 min prior PCSK9 (10 μg), 1 hour",completely protected; also recorded: completely inhibits
same,intensity of surface PCSK9 staining,[9],marked decrease in the intensity of surface PCSK9 staining
